# Data reported in patent publication US10137110B2, “1-cyclohexyl-2-phenylaminobenzimidazoles as mIDH1 inhibitors for the treatment of tumors” (Bayer Pharma Aktiengesellschaft, priority 2014, dated 2018).
# How the values were obtained:
# IDH1 R132H enzyme = IDH1 R132H enzyme (Homo sapiens (Human), UniProt O75874, R132H); assay: Mutant IDH1 R132H biochemical assay; settings: NADPH consumption, luminescent readout; 1.5 nM enzyme, 250 μM α-KG, 1 μM NADPH, 30 minutes, 32° C.; test range 0.002-10 μM
# Procedure: mIDH1 catalyzes the NADPH-dependent reduction of alpha-ketoglutarate (α-KG) to (2R)-2-hydroxyglutarate (2-HG). NADPH consumption was measured by luminescent readout.
# The biochemical reactions were performed at 32° C. in 384-well plates using a reaction volume of 41 μl and the following assay buffer conditions: 50 mM Tris pH 7.5, 100 mM NaCl, 20 mM MgCl2, 0.05% BSA, 0.01% Brij, 1 μM NADPH, and 250 μM α-KG. […] Test compounds were used in a concentration range between 0.002 and 10 μM. The final DMSO concentration was 2.4%.
# The reaction was incubated for 30 minutes, then 40 μl of detection mix (0.75 μg/ml Luciferase, 0.02 U/ml Oxidoreductase, 4 μg/ml FMN, 2 μl/ml Decanal/Ethanol, 50 mM Tris pH 7.5, 0.5% Glycerin, 0.01% Tween-20, 0.05% BSA) was added. Luminescence was measured on a luminescent reader (10 seconds measuring time, 1 second integration period, 30% sensitivity). The decrease in luminescence is proportional to mIDH1 activity. IC50 values are determined by interpolation from plots of relative luminescence versus inhibitor concentration.
# [1] = target: mutated isocitrate dehydrogenase (mIDH) protein overexpressed in LN229 R132H cells (Homo sapiens (Human), UniProt O75874, R132H); assay: Mutant IDH1 cellular assay (2-HG in medium of LN229 R132H cells); assay type: cell-based; settings: 24 hours, fluorescence readout
# Procedure: Mutant IDH1 Cellular Assay
# Levels of (2R)-2-hydroxyglutarate (2HG) were measured in medium of a cell line with overexpression of mutated isocitrate dehydrogenase (mIDH) protein. mIDH catalyzes the NADPH-dependent reduction of alpha-ketoglutarate to 2-HG. Cells (LN229 R132H, Mohrenz et al., Apoptosis (2013) 18:1416-1425) were grown in DMEM containing 10% FCS. They were harvested by trypsin and seeded into 96-well plates. Cells were incubated overnight at 37° C. in 5% CO2. The next day test compounds were added to each cell well. The final concentration of DMSO was 0.1% and DMSO controls were included. The plates were then placed in an incubator for 24 hours.
# 2-HG was measured according to Balss et al. (Acta Neuropathol (2012) 124: 883-891). Briefly, HClO4 was added to each well and the plates were centrifuged. Aliquots are removed and incubated with hydroxyglutarate dehydrogenase (HGDH), diaphorase, NAD+, and resazurin. The conversion of resazurin to resorufin was detected by fluorescence spectroscopy at Ex 540 nm Em 600 nm. The increase in fluorescence is proportional to 2-HG production. IC50 values are determined by interpolation from plots of relative fluorescence vs inhibitor concentration.
# Sequence of mutated isocitrate dehydrogenase (mIDH) protein overexpressed in LN229 R132H cells (O75874 whole entry R132H): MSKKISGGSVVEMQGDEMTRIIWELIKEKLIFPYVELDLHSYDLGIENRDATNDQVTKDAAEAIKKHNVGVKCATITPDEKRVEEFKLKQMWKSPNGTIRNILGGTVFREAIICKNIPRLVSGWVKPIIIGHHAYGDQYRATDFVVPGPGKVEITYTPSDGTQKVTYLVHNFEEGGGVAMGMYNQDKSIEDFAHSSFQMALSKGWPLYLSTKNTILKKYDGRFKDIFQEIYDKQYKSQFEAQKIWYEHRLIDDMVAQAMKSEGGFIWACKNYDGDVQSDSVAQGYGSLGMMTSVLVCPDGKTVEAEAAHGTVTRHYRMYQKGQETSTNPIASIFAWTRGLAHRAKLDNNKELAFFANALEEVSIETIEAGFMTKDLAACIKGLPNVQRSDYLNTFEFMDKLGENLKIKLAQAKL
# Sequence of IDH1 R132H enzyme (O75874 whole entry R132H): as above
SMILES,IC50 (IDH1 R132H enzyme),IC50 [1]
Cc1n[nH]c(C)c1-c1ccc2c(c1)nc(Nc1ccc(OC(F)(F)F)cc1)n2[C@H]1C[C@@H](C)CC(C)(C)C1 (stereo in doubt) [Example 2-5-2],1540 nM,1500 nM
C[C@H]1C[C@@H](n2c(Nc3ccc(OC(F)(F)F)cc3)nc3cc(-c4cnoc4)ccc32)CC(C)(C)C1 (stereo in doubt) [Example 2-9],180 nM,2000 nM
Cc1noc(C)c1-c1ccc2c(c1)nc(Nc1ccc(SC(F)(F)F)cc1)n2[C@@H]1C[C@H](C)CC(C)(C)C1 (stereo in doubt) [Example 2-21-1],1100 nM,10000 nM
Cc1cc(-c2ccc3c(c2)nc(Nc2ccc(OC(F)(F)F)cc2)n3[C@@H]2C[C@H](C)CC(C)(C)C2)n(C)n1 (stereo in doubt) [Example 2-12],100 nM,8000 nM
Cc1noc(C)c1-c1ccc2c(c1)nc(Nc1ccc(C(F)(F)F)cc1)n2[C@H]1C[C@@H](C)CC(C)(C)C1 (stereo in doubt) [Example 2-23-2],180 nM,10000 nM
C[C@H]1C[C@@H](n2c(Nc3ccc(OC(F)(F)F)cc3)nc3cc(-c4cnn(C)c4)ccc32)CC(C)(C)C1 (stereo in doubt) [Example 2-13],1100 nM,5000 nM
Cc1n[nH]c(C)c1-c1ccc2c(c1)nc(Nc1ccc(C(F)(F)F)cc1)n2[C@H]1C[C@@H](C)CC(C)(C)C1 (stereo in doubt) [Example 2-24-2],140 nM,7000 nM
"CC1(C)CC(n2c(Nc3ccc(OC(F)(F)F)cc3)nc3cc(-c4nnn[nH]4)ccc32)CC(C)(C)C1 [Example 2-28, 1-(3,3,5,5-tetramethylcyclohexyl)-5-(1H-tetrazol-5-yl)-N-[4-(trifluoromethoxy)-phenyl]-1H-benzimidazol-2-amine]",70 nM,200 nM
Cc1n[nH]c(C)c1-c1ccc2c(c1)nc(Nc1ccc(OC(F)(F)F)cc1)n2[C@@H]1C[C@H](C)CC(C)(C)C1 (stereo in doubt) [Example 2-5],90 nM,4000 nM
"Cc1noc(C)c1-c1ccc2c(c1)nc(Nc1ccc(OC(F)(F)F)cc1)n2[C@H]1C[C@@H](C)CC(C)(C)C1 (racemic) [Example 2-1, (±) 5-(3,5-dimethyl-1,2-oxazol-4-yl)-N-[4-(trifluoromethoxy)phenyl]-1-[(cis)-3,3,5-trimethylcyclohexyl]-1H-benzimidazol-2-amine]",120 nM,900 nM
Cc1n[nH]c(C)c1-c1ccc2c(c1)nc(Nc1ccc(SC(F)(F)F)cc1)n2[C@@H]1C[C@H](C)CC(C)(C)C1 (stereo in doubt) [Example 2-10-1],300 nM,10000 nM
"Cc1cc2c(cc1C1OC(=O)NC1=O)nc(Nc1ccc(OC(F)(F)F)cc1)n2C1CC(C)(C)CC(C)(C)C1 (stereo not shown) [Example 2-36, 5-[6-methyl-1-(3,3,5,5-tetramethylcyclohexyl)-2-{[4-(trifluoromethoxy)phenyl]amino}-1H-benzimidazol-5-yl]-1,3-oxazolidine-2,4-dione]",14 nM,22 nM
C[C@H]1C[C@@H](n2c(Nc3ccc(OC(F)(F)F)cc3)nc3cc(-c4cccc(C(N)=O)c4)ccc32)CC(C)(C)C1 (stereo in doubt) [Example 2-11],210 nM,2800 nM
C[C@H]1C[C@@H](n2c(Nc3ccc(OC(F)(F)F)cc3)nc3cc(-c4ccn[nH]4)ccc32)CC(C)(C)C1 (stereo in doubt) [Example 2-8],130 nM,2000 nM
C[C@H]1C[C@@H](n2c(Nc3ccc(OC(F)(F)F)cc3)nc3cc(-c4cn[nH]c4)ccc32)CC(C)(C)C1 (stereo in doubt) [Example 2-4],80 nM,600 nM
"Cc1cc2c(cc1-c1c(C)n[nH]c1C)nc(Nc1ccc(OC(F)(F)F)cc1)n2C1CC(C)(C)CC(C)(C)C1 [Example 2-29, 5-(3,5-dimethyl-1H-pyrazol-4-yl)-6-methyl-1-(3,3,5,5-tetramethylcyclohexyl)-N-[4-(trifluoromethoxy)phenyl]-1H-benzimidazol-2-amine]",4000 nM,2700 nM
Cc1nn(C)c(C)c1-c1ccc2c(c1)nc(Nc1ccc(OC(F)(F)F)cc1)n2[C@@H]1C[C@H](C)CC(C)(C)C1 (stereo in doubt) [Example 2-19],1900 nM,10000 nM
